This is an account of results in PMC8879702, “Discovery of Small Molecule Activators of Chemokine Receptor CXCR4 That Improve Diabetic Wound Healing” (International Journal of Molecular Sciences, 2022).

What all share (format): cell-based
Experiment [1] deals with CEM-CCRF cells. Briefly: 96 wells transwell migration assay in CEM human lymphoblast cells. The text has this:
Thus, to confirm CXCR4 functional activity, we evaluated UCUF-728 in a 96 wells transwell migration assay in CEM human lymphoblast cells. […] (Supplemental Figure S7). From the analog structure–activity relationship studies and characterization studies in the chemotaxis assay, cAMP signaling and CXCR4 binding assay, we identified UCUF-728 as a potent and functionally selective CXCR4 receptor modulator.
CEM-CCRF (ATCC CCL-119) were suspended in RPMI 1640 (Corning; 10-040-CV) at 5.0 × 10^5 cells/mL and allowed to incubate in cell culture incubator at 37 °C with 5% CO2 for one hour. […] Following 1 h cell incubation and compound dispensing, 150 μL of RPMI 1640 supplemented with 2% Fetal Bovine Serum was added to each well of the compound receiver tray, and 50 μL of 5 × 10^5 cells/mL cell suspension in RPMI were added to each well of the top filter plate. Plates were reassembled and placed in a cell culture incubator at 37 °C with 5% CO2 for three hours. After incubation, Multi-Screen plate was disassembled and 100 μL of solution was collected from compound receiver tray and transferred to 96 well luminescent plate and an equal volume of ATPLite 1step luminescence reagent (Perkin Elmer, Waltham, MA, USA) was added to each well. Luminescence was measured using the CLARIOstar Plus (BMG LABTECH Inc., Cary, NC, USA).

In experiment [2] the test system is miR-15b. Nature of the experiment: miR-15b expression in human diabetic fibroblasts (real time qPCR). The method, then:
An additional secondary screen was performed to further validate the activity of UCUF-728 as a selective CXCR4 receptor modulator. Human diabetic and non-diabetic fibroblasts were cultured with increasing concentrations of the compound. The cells were incubated for 24 h and then total cellular RNA was isolated to examine the ability of the compound to correct the abnormal expression of miR-15b, and miR-29a. We have shown that human diabetic skin has an increased miR-15b expression at the baseline compared to non-diabetic skin [7].
CEM-CCRF cells (ATCC CCL-119) were cultured in growth media consisting of RPMI 1640 (Corning; Corning NY, USA) supplemented with 10% Fetal Bovine Serum (Corning; Corning, NY, USA), and 100 IU penicillin, […] streptomycin sulfate (Corning; Corning, NY, USA). Cells were maintained in suspension and subcultured twice weekly to maintain cell densities between 0.8 × 10^6 cells/mL and 2.5 × 10^6 cells/mL to maintain exponential growth phase. […]
Total RNA was extracted with TRIzol reagent (Invitrogen, Carlsbad, CA, USA) according to the manufacturer’s established protocol. […] Quantitative PCR was performed on a BIO-RAD CFX96 according to the manufacturer’s instructions. Quantitative values of genes of interest are normalized based on U6. […]
On the technique in general: Quantitative PCR measures a nucleic acid by following its amplification.

Experiment [3] has as its target CXCR4 receptor (Homo sapiens, UniProt P61073). Briefly: primary 1536 w β-arrestin recruitment assay (CXCR4-bla U2OS cells, SDF-1α from R&D systems). Further details: host or cells: Tango CXCR4-bla U2OS cells. The method, then: In our effort to identify CXCR4 activators from the NIH Molecular Library Small Molecule Repository (MLSMR), we developed a primary screening assay to measure β-arrestin recruitment to the activated G-protein coupled receptor (GPCR) by a Florescence Resonance Energy Transfer (FRET) in U2OS cells, overexpressing the CXCR4 receptor engineered with a β-lactamase (bla) reporter system. CXCR4-bla cells plated in 1536 w were stimulated in the presence of 10 µM compound concentration. […] Using this approach, we successfully screened the NIH MLSMR of 370,620 compounds (Figure 1A,B) and identified 303 hits (hit rate = 0.08%). […] These compounds were graded according to activity and structure, resulting in 86 compounds that met the criteria as potential CXCR4 agonists for further characterization (Figure 1B). The workflow for high-throughput screening and this study is illustrated in Figure 1B.
Chemical stability, synthetic tractability, solubility and complete dose response and potency criteria led to the prioritization of the 5-aryl-2-cyclopropyl oxazole scaffold, represented by primary hit Compound 2 (Table 1). The early structure–activity relationship was established around the 5-aryl-2-cyclopropyl oxazole core with commercially available analogs with diverse substituents in the sulfonanilide ring of the scaffold. […] Keeping the 2-OMe substituent constant, we screened a small set of electron withdrawing and electron rich substituents at the 5-position of the anilide ring (entries 16–19). […] The analytical data for UCUF-728 is shown in Supplemental Figures S1–S4.
In general terms: Arrestin recruitment assays detect the binding of arrestin to an activated receptor.

CXCR4 receptor, sequence (P61073 whole entry): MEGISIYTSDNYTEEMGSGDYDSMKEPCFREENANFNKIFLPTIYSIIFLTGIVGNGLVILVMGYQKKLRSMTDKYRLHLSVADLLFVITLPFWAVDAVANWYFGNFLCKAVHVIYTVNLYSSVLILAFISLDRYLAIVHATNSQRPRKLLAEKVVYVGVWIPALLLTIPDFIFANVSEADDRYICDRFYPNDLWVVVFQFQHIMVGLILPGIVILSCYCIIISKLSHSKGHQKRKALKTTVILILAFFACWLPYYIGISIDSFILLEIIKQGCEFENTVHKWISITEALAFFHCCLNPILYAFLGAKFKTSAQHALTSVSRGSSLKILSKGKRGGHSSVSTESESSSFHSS

For `COc1ccc(OC)c(NS(=O)(=O)c2ccc(-c3cnc(C4CC4)o3)cc2)c1` [Compound 19], the “induction of cell migration” value in experiment [1] (compound in lower channel, 3 h) is “induced migration with a similar EC50 and Emax as the B-arrestin recruitment activity”. Moreover, the “effect on SDF-1α-mediated migration response” value in experiment [1] (saturating concentrations of UCUF-728) is listed as “potentiated”. In experiment [2], the “lowest concentration with potent suppression of miR-15b expression” value was 0.1 µM. Moreover, the miR-15b expression result in experiment [2] (24 h) is listed as “decreased the expression of miR-15b”. Further, the EC50 (usually the concentration at which the effect is half-maximal) in experiment [3] stood at 1100 nM. Besides, the maximum response (Emax) (as a rule, the size of the effect at its maximum, as opposed to the concentration needed) in experiment [3] (U2OS) stood at 60%.
